Data from patent US12209087B2, “AKT1 modulators” (Alterome Therapeutics, Inc., priority 2022, dated 2025).

Target: T1, full length AKT E17K (Homo sapiens, UniProt P31749, E17K)
T1 construct: host or cells: HEK-293 (ATCC CRL-1573)
Test: NanoBRET Target Engagement (TE) Assay
Type: cell-based
Conditions: competitive tracer displacement in living cells, read-out: AKT1 E17K IC50
In short: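 Compound and tracer incubated 2 h before luminescence at donor 450 nm and acceptor 600 nm, with extracellular signal inhibited. EC50 by sigmoidal variable-slope regression.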

T1 sequence (P31749 whole entry E17K): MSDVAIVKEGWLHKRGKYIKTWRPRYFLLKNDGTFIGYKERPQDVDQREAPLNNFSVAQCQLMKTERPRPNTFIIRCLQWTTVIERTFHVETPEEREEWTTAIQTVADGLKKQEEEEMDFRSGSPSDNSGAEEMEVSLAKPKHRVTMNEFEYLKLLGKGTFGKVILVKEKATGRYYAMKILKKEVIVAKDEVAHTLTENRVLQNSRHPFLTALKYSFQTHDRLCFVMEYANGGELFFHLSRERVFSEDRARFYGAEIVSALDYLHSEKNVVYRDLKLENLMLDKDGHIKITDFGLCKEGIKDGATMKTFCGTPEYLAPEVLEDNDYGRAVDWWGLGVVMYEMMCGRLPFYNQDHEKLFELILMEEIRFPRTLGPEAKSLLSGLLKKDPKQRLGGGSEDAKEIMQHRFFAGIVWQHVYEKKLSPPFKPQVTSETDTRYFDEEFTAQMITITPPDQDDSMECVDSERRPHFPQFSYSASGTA

Row | SMILES | IC50
1 | N#Cc1nccc(NC2CCN(Cc3ccc(-n4c(-c5cccnc5N)nc5ccc(-c6ccc(=O)[nH]c6)nc54)cc3)CC2)n1 [Example 266, 4-((1-(4-(2-(2-Aminopyridin-3-yl)-5-(6-oxo-1,6-dihydropyridin-3-yl)-3H-imidazo[4,5-b]pyridin-3-yl)benzyl)piperidin-4-yl)amino)pyrimidine-2-carbonitrile] | 60 to 600 nM
2 | N#Cc1nccc(NC2CCN(Cc3ccc(-n4c(-c5cccnc5N)nc5ccc(-c6cccc(=O)[nH]6)nc54)cc3)CC2)n1 [Example 267, 4-((1-(4-(2-(2-Aminopyridin-3-yl)-5-(6-oxo-1,6-dihydropyridin-2-yl)-3H-imidazo[4,5-b]pyridin-3-yl)benzyl)piperidin-4-yl)amino)pyrimidine-2-carbonitrile] | < 15 nM
3 | N#Cc1ncnc(N2CCC3(CC2)CN(Cc2ccc(-n4c(-c5cccnc5N)nc5ccc(-c6ccccc6)nc54)cc2)C3)n1 [Example 268, 4-(2-(4-(2-(2-Aminopyridin-3-yl)-5-phenyl-3H-imidazo[4,5-b]pyridin-3-yl)benzyl)-2,7-diazaspiro[3.5]nonan-7-yl)-1,3,5-triazine-2-carbonitrile] | < 15 nM
4 | N#Cc1ncnc(N2CC[C@]3(CCN(Cc4ccc(-n5c(-c6cccnc6N)nc6ccc(-c7ccccc7)nc65)cc4)C3)C2)n1 [Example 269, (S)-4-(7-(4-(2-(2-Aminopyridin-3-yl)-5-phenyl-3H-imidazo[4,5-b]pyridin-3-yl)benzyl)-2,7-diazaspiro[4.4]nonan-2-yl)-1,3,5-triazine-2-carbonitrile] | < 15 nM
5 | N#Cc1ncnc(N2C3CCC2CN(Cc2ccc(-n4c(-c5cccnc5N)nc5ccc(-c6ccccc6)nc54)cc2)C3)n1 [Example 270, 4-(3-(4-(2-(2-Aminopyridin-3-yl)-5-phenyl-3H-imidazo[4,5-b]pyridin-3-yl)benzyl)-3,8-diazabicyclo[3.2.1]octan-8-yl)-1,3,5-triazine-2-carbonitrile] | 60 to 600 nM
6 | N#Cc1ncnc(N2CC3CCC(C2)N3Cc2ccc(-n3c(-c4cccnc4N)nc4ccc(-c5ccccc5)nc43)cc2)n1 [Example 271, 4-(8-(4-(2-(2-Aminopyridin-3-yl)-5-phenyl-3H-imidazo[4,5-b]pyridin-3-yl)benzyl)-3,8-diazabicyclo[3.2.1]octan-3-yl)-1,3,5-triazine-2-carbonitrile] | 15 to 60 nM
7 | N#Cc1ncnc(N2C[C@H]3C[C@@H]2CN3Cc2ccc(-n3c(-c4cccnc4N)nc4ccc(-c5ccccc5)nc43)cc2)n1 [Example 272, 4-((1R,4R)-5-(4-(2-(2-aminopyridin-3-yl)-5-phenyl-3H-imidazo[4,5-b]pyridin-3-yl)benzyl)-2,5-diazabicyclo[2.2.1]heptan-2-yl)-1,3,5-triazine-2-carbonitrile] | < 15 nM
8 | C[C@@H]1CN(Cc2ccc(-n3c(-c4cccnc4N)nc4ccc(-c5ccccc5)nc43)cc2)CCN1c1ncnc(C#N)n1 [Example 273, (R)-4-(4-(4-(2-(2-Aminopyridin-3-yl)-5-phenyl-3H-imidazo[4,5-b]pyridin-3-yl)benzyl)-2-methylpiperazin-1-yl)-1,3,5-triazine-2-carbonitrile] | < 15 nM
9 | C[C@H]1CN(Cc2ccc(-n3c(-c4cccnc4N)nc4ccc(-c5ccccc5)nc43)cc2)CCN1c1ncnc(C#N)n1 [Example 274, (S)-4-(4-(4-(2-(2-Aminopyridin-3-yl)-5-phenyl-3H-imidazo[4,5-b]pyridin-3-yl)benzyl)-2-methylpiperazin-1-yl)-1,3,5-triazine-2-carbonitrile] | 15 to 60 nM
10 | C[C@H]1CN(Cc2ccc(-n3c(-c4cccnc4N)nc4ccc(-c5ccccc5)nc43)cc2)C[C@H](C)N1c1ncnc(C#N)n1 [Example 275, 4-((2S,6S)-4-(4-(2-(2-Aminopyridin-3-yl)-5-phenyl-3H-imidazo[4,5-b]pyridin-3-yl)benzyl)-2,6-dimethylpiperazin-1-yl)-1,3,5-triazine-2-carbonitrile] | < 15 nM
11 | N#Cc1ncnc(N2CCN(Cc3ccc(-n4c(-c5cccnc5N)nc5ccc(-c6ccccc6)nc54)cc3)CC23CC3)n1 [Example 276, 4-(7-(4-(2-(2-aminopyridin-3-yl)-5-phenyl-3H-imidazo[4,5-b]pyridin-3-yl)benzyl)-4,7-diazaspiro[2.5]octan-4-yl)-1,3,5-triazine-2-carbonitrile] | < 15 nM
12 | C[C@@H]1CN(Cc2ccc(-n3c(-c4cccnc4N)nc4ccc(-c5ccccc5)nc43)cc2)C[C@H](C)N1c1ncnc(C#N)n1 [Example 277, 4-((2R,6S)-4-(4-(2-(2-aminopyridin-3-yl)-5-phenyl-3H-imidazo[4,5-b]pyridin-3-yl)benzyl)-2,6-dimethylpiperazin-1-yl)-1,3,5-triazine-2-carbonitrile] | 15 to 60 nM
13 | N#Cc1ncnc(NC2CCCN(Cc3ccc(-n4c(-c5cccnc5N)nc5ccc(-c6ccccc6)nc54)cc3)CC2)n1 (stereo not drawn) [Example 278, 4-((1-(4-(2-(2-Aminopyridin-3-yl)-5-phenyl-3H-imidazo[4,5-b]pyridin-3-yl)benzyl)azepan-4-yl)amino)-1,3,5-triazine-2-carbonitrile] | 15 to 60 nM
14 | N#Cc1ncnc(NC2COCCN(Cc3ccc(-n4c(-c5cccnc5N)nc5ccc(-c6ccccc6)nc54)cc3)C2)n1 (stereo not drawn) [Example 279, 4-((4-(4-(2-(2-Aminopyridin-3-yl)-5-phenyl-3H-imidazo[4,5-b]pyridin-3-yl)benzyl)-1,4-oxazepan-6-yl)amino)-1,3,5-triazine-2-carbonitrile] | < 15 nM
15 | Cc1ccc2nc(-c3cccnc3N)n(-c3ccc(CN4CCC(Nc5ccnc(C#N)n5)CC4)cc3)c2n1 [Example 280, 4-((1-(4-(2-(2-Aminopyridin-3-yl)-5-methyl-3H-imidazo[4,5-b]pyridin-3-yl)benzyl)piperidin-4-yl)amino)pyrimidine-2-carbonitrile] | < 15 nM
16 | N#Cc1nccc(N2CCN(Cc3ccc(-n4c(-c5cccnc5N)nc5ccc(-c6ccccc6F)nc54)cc3)CC2)n1 [Example 281, 4-(4-(4-(2-(2-Aminopyridin-3-yl)-5-(2-fluorophenyl)-3H-imidazo[4,5-b]pyridin-3-yl)benzyl)piperazin-1-yl)pyrimidine-2-carbonitrile] | < 15 nM
17 | N#Cc1ccnc(N2CCN(Cc3ccc(-n4c(-c5cccnc5N)nc5ccc(-c6ccccc6F)nc54)cc3)CC2)n1 [Example 282, 2-(4-(4-(2-(2-Aminopyridin-3-yl)-5-(2-fluorophenyl)-3H-imidazo[4,5-b]pyridin-3-yl)benzyl)piperazin-1-yl)pyrimidine-4-carbonitrile] | 15 to 60 nM
18 | N#Cc1ccnc(N2CCN(Cc3ccc(-n4c(-c5cccnc5N)nc5ccc(N6CCCNC(=O)C6)nc54)cc3)CC2)n1 [Example 283, 2-(4-(4-(2-(2-Aminopyridin-3-yl)-5-(3-oxo-1,4-diazepan-1-yl)-3H-imidazo[4,5-b]pyridin-3-yl)benzyl)piperazin-1-yl)pyrimidine-4-carbonitrile] | 15 to 60 nM
19 | N#Cc1cc(N2CCN(Cc3ccc(-n4c(-c5cccnc5N)nc5ccc(N6CCCNC(=O)C6)nc54)cc3)CC2)ncn1 [Example 284, 6-(4-(4-(2-(2-Aminopyridin-3-yl)-5-(3-oxo-1,4-diazepan-1-yl)-3H-imidazo[4,5-b]pyridin-3-yl)benzyl)piperazin-1-yl)pyrimidine-4-carbonitrile] | 60 to 600 nM
20 | N#Cc1ncnc(N2CC3CCC(C2)N3Cc2ccc(-n3c(-c4cccnc4N)nc4ccc(N5CCOCC5)nc43)cc2)n1 [Example 285, 4-(8-(4-(2-(2-Aminopyridin-3-yl)-5-morpholino-3H-imidazo[4,5-b]pyridin-3-yl)benzyl)-3,8-diazabicyclo[3.2.1]octan-3-yl)-1,3,5-triazine-2-carbonitrile] | < 15 nM
21 | CC(C)c1ccc2nc(-c3cccnc3N)n(-c3ccc(CN4CCC(Nc5ccnc(C#N)n5)CC4)cc3)c2n1 [Example 286, 4-((1-(4-(2-(2-Aminopyridin-3-yl)-5-isopropyl-3H-imidazo[4,5-b]pyridin-3-yl)benzyl)piperidin-4-yl)amino)pyrimidine-2-carbonitrile] | < 15 nM
22 | COc1ccc2nc(-c3cccnc3N)n(-c3ccc(CN4CCC(Nc5ccnc(C#N)n5)CC4)cc3)c2n1 [Example 287, 4-((1-(4-(2-(2-Aminopyridin-3-yl)-5-methoxy-3H-imidazo[4,5-b]pyridin-3-yl)benzyl)piperidin-4-yl)amino)pyrimidine-2-carbonitrile] | < 15 nM
23 | N#Cc1nccc(NC2CCN(Cc3ccc(-n4c(-c5cccnc5N)nc5ccc(C(N)=O)nc54)cc3)CC2)n1 [Example 288, 2-(2-aminopyridin-3-yl)-3-(4-((4-((2-cyanopyrimidin-4-yl)amino)piperidin-1-yl)methyl)phenyl)-3H-imidazo[4,5-b]pyridine-5-carboxamide] | 15 to 60 nM
24 | CN(C)C(=O)c1ccc2nc(-c3cccnc3N)n(-c3ccc(CN4CCC(Nc5ccnc(C#N)n5)CC4)cc3)c2n1 [Example 289, 2-(2-aminopyridin-3-yl)-3-(4-((4-((2-cyanopyrimidin-4-yl)amino)piperidin-1-yl)methyl)phenyl)-N,N-dimethyl-3H-imidazo[4,5-b]pyridine-5-carboxamide] | 60 to 600 nM
25 | N#Cc1cc(N2CCN(Cc3ccc(-n4c(-c5cccnc5N)nc5ccc(C6CC6)nc54)cc3)CC2)ncn1 [Example 290, 6-(4-(4-(2-(2-Aminopyridin-3-yl)-5-cyclopropyl-3H-imidazo[4,5-b]pyridin-3-yl)benzyl)piperazin-1-yl)pyrimidine-4-carbonitrile] | 15 to 60 nM
26 | N#Cc1cc(NC2CCN(Cc3ccc(-n4c(-c5cccnc5N)nc5ccc(C6CC6)nc54)cc3)CC2)ncn1 [Example 291, 6-((1-(4-(2-(2-Aminopyridin-3-yl)-5-cyclopropyl-3H-imidazo[4,5-b]pyridin-3-yl)benzyl)piperidin-4-yl)amino)pyrimidine-4-carbonitrile] | 15 to 60 nM
27 | N#Cc1ncnc(N2CCN(Cc3ccc(-n4c(-c5cccnc5N)nc5ccc(N6CCOCC6)nc54)cc3)CC2)n1 [Example 292, 4-(4-(4-(2-(2-Aminopyridin-3-yl)-5-morpholino-3H-imidazo[4,5-b]pyridin-3-yl)benzyl)piperazin-1-yl)-1,3,5-triazine-2-carbonitrile] | < 15 nM
